Experimental data from patent publication US5073540A, “Composite binding site drugs” (Receptron, priority 1989, dated 1991).
Where a SMILES comes first, the peptide text is derived from it.

Experiments:
[1] = Peptide depletion (degradation or adsorption) during the experimental period, by HPLC and 125I-label; type: physicochemical; conditions: HPLC and 125I-labeled peptide; concentrations above 0.1 μM
purified human IR = target: T1, purified human IR (Homo sapiens, UniProt P06213); test: IR autophosphorylation (tyrosine kinase activity of purified insulin receptor); type: biochemical; conditions: for EC50: insulin-induced, 95% confidence intervals printed: K^k 2.2-7.2 μM, D^k 0.3-2.2 μM; for inhibition of basal activity of IR: no insulin added
T1 construct: from tissue; host or cells: human placenta
T1 sequence (P06213 28-758 limits assumed): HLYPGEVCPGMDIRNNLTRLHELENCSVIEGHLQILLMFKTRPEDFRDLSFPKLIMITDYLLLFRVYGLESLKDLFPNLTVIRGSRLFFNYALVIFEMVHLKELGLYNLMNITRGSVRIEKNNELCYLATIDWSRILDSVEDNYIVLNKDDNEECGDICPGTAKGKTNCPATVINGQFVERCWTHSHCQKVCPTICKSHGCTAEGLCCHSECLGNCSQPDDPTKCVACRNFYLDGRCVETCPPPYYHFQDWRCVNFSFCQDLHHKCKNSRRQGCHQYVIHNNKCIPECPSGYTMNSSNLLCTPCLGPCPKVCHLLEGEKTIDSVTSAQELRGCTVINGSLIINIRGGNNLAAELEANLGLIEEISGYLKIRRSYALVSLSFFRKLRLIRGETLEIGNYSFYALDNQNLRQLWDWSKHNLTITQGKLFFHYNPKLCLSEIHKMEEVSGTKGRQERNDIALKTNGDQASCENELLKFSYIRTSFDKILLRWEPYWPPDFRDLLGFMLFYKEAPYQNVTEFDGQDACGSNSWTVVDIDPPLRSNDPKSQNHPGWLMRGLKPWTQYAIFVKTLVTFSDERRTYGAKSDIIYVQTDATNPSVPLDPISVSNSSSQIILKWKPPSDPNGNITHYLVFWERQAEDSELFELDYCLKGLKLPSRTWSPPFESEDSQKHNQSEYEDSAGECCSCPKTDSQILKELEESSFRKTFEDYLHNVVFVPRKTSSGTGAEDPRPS
T1 sequence (P06213 763-1382 limits assumed): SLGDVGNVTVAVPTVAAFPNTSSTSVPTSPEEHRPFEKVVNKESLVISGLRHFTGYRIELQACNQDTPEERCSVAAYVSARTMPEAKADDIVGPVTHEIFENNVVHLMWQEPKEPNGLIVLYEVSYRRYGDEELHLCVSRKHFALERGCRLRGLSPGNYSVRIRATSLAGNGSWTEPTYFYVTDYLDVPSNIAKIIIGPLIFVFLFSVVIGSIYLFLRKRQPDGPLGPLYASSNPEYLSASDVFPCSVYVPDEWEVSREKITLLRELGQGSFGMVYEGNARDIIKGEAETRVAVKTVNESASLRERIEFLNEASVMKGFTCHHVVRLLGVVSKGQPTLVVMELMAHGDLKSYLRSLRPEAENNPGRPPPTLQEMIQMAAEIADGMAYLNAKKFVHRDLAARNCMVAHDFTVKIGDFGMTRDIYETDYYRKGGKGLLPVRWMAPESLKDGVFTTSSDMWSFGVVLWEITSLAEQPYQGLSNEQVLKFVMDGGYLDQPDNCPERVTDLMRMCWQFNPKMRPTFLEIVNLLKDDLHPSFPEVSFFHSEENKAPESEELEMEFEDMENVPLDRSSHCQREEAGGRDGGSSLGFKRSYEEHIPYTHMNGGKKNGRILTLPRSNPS
Experimental: When peptide was used, it was added in 5.0 μl, the volume adjusted to 20 μl by adding buffer, and the mixture incubated (1 hr, 4° C.). After incubation, 10 μl of a solution containing 2.5 μCi ^32 P-labeled ATP (3,000 Ci/mmol; γ-labeled; Amersham), 50 mM HEPES, pH 7.6, 150 mM NaCl, 0.1% Triton X-100, 37.5 μM unlabeled ATP, 15 mM MgCl2, and 6 MnCl2 was added to a final volume of 30 μl. The mixture was then incubated for 30 min. at 24° C.
After incubation, 15 μl sample buffer was added, and the sample was boiled for 5 min., and run on 10% SDS-PAGE overnight. The gel was dried, and autoradiograms processed with an exposure time of 5-10 hr. For quantitative estimates the β-subunit band of IR and the IRKD bands were cut out and counted dry (Cerenkov) in a scintillation counter.

Molecule	depletion (degradation or adsorption) during the experimental period [1]	EC50 (purified human IR) [µM]	inhibition of basal activity of IR (purified human IR)
dynorphin A	No significant depletion	–	–
CC[C@H](C)[C@H](NC(=O)[C@H](CCC(N)=O)NC(=O)[C@@H](NC(=O)[C@H](CCC(=O)O)NC(=O)[C@H](CCCNC(=N)N)NC(=O)[C@@H](N)CCC(=O)O)[C@@H](C)O)C(=O)N[C@@H](C)C(=O)N[C@@H](CCCCN)C(=O)NCC(=O)N[C@@H](CC(N)=O)C(=O)N[C@@H](CCC(=O)O)C(=O)N[C@@H](CCC(N)=O)C(=O)N[C@@H](CO)C(=O)N[C@@H](Cc1ccccc1)C(=O)N[C@@H](CCCNC(=N)N)C(=O)N[C@H](C(=O)N[C@@H](CC(=O)O)C(=O)N[C@@H](CC(C)C)C(=O)N[C@@H](CCCNC(=N)N)C(=O)N[C@H](C(=O)N[C@@H](CC(C)C)C(=O)N[C@@H](CC(C)C)C(=O)N[C@@H](CCCNC(=N)N)C(=O)N[C@@H](Cc1ccc(O)cc1)C(=O)N[C@@H](Cc1ccc(O)cc1)C(=O)O)[C@@H](C)O)C(C)C [D^k-(61-85), ERETQIAKGNEQSFRVDLRTLLRYY] (H-ERETQIAKGNEQSFRVDLRTLLRYY-OH)	–	1.2	24-40%
CC[C@H](C)[C@H](NC(=O)[C@H](CCC(N)=O)NC(=O)[C@@H](NC(=O)[C@H](CC(N)=O)NC(=O)[C@H](CCCNC(=N)N)NC(=O)[C@@H](N)CCC(=O)O)[C@@H](C)O)C(=O)N[C@@H](C)C(=O)N[C@@H](CCCCN)C(=O)NCC(=O)N[C@@H](CC(N)=O)C(=O)N[C@@H](CCC(=O)O)C(=O)N[C@@H](CCC(N)=O)C(=O)N[C@H](C(=O)N[C@@H](Cc1ccccc1)C(=O)N[C@@H](CCCNC(=N)N)C(=O)N[C@H](C(=O)N[C@@H](CC(N)=O)C(=O)N[C@@H](CC(C)C)C(=O)N[C@@H](CCCNC(=N)N)C(=O)N[C@H](C(=O)N[C@@H](C)C(=O)N[C@@H](CC(C)C)C(=O)N[C@@H](CCCNC(=N)N)C(=O)N[C@@H](Cc1ccc(O)cc1)C(=O)N[C@@H](Cc1ccc(O)cc1)C(=O)O)[C@@H](C)O)C(C)C)[C@@H](C)CC [K^k-(61-85)] (H-ERNTQIAKGNEQIFRVNLRTALRYY-OH)	–	4	24-40%
